One assay has as its system Staphylococcus aureus. Description: Antimicrobial activity against methicillin resistant Staphylococcus aureus ATCC 43300. Type of assay: functional, organism-based. The settings on record: for pIC50: Staphylococcus aureus, ATCC 43300, read-out: IC50.
The next assay relates to Vero. The assay can be described thus: Cytotoxicity against african green monkey Vero cells after 48 hrs by Neutral red assay. It counts as cell-based, Chlorocebus sabaeus. The conditions noted are these: for pIC50: Chlorocebus sabaeus, Vero, 48 h, read-out: IC50; for IC50: vero.
For a further assay, the system named is SK-MEL. The assay can be described thus: Cytotoxicity against human SK-MEL cells after 48 hrs by Neutral red assay. Type of assay: functional, cell-based. The settings on record: for pIC50: Homo sapiens, SK-MEL, 48 h, read-out: IC50; for IC50: sk-mel.
The next assay relates to BT-549. The assay can be described thus: Cytotoxicity against human BT549 cells after 48 hrs by Neutral red assay. The conditions noted are these: for pIC50: Homo sapiens, BT-549, 48 h, read-out: IC50; for IC50: bt-549. Type of assay: functional, cell-based.
The subject of a further assay is SK-OV-3. Description: Cytotoxicity against human SKOV3 cells after 48 hrs by Neutral red assay. It counts as functional, cell-based. The settings on record: for pIC50: Homo sapiens, SK-OV-3, 48 h, read-out: IC50; for IC50: sk-ov-3.
The test system of assay [1] is Mycobacterium intracellulare. The assay can be described thus: Antimicrobial activity against […] Mycobacterium intracellular ATCC 23068. It counts as functional, organism-based. The settings on record: for pIC50: Mycobacterium intracellulare, ATCC 23068.

pIC50: −log10 of the molar value.

Consider `CC(=O)O[C@@H]1OC=C2[C@@H](OC(C)=O)C[C@H]3[C@]4(C)CC[C@H]5C(C)(C)CCC[C@]5(C)[C@H]4C[C@@H](OC(C)=O)[C@]3(C)[C@H]21` [HETERONEMIN ACETATE], for which, in the assay on Staphylococcus aureus, the IC50 entry is “Not Active”. Moreover, the pIC50 in the assay with Vero is 5.05; in the assay with SK-MEL, 4.78; in the assay with BT-549 it was 4.73; with SK-OV-3 it was 4.73; in assay [1] (read-out: IC50), 4.73.

`CO[C@H]1O[C@@H](OC)[C@H]2C1=CC[C@H]1[C@]3(C)CC[C@H]4C(C)(C)CCC[C@]4(C)[C@H]3C[C@@H](O)[C@]21C`: the IC50 entry (in the assay with Staphylococcus aureus; with Vero; in the assay on SK-MEL; in the assay on BT-549; in the assay on SK-OV-3; in assay [1]) was “Not Active” each time.

Take `CC1(C)CCC[C@]2(C)[C@H]3C[C@@H](O)[C@]4(C)c5cocc5C=C[C@H]4[C@]3(C)CC[C@@H]12`: the IC50 result (with Staphylococcus aureus; in the assay with Vero; in the assay with SK-MEL; with BT-549; in the assay on SK-OV-3; in assay [1]) was “Not Active” each time.

Take `CC(=O)O[C@@H]1OCC2[C@@H](OC(C)=O)C[C@H]3[C@]4(C)CC[C@H]5C(C)(C)CCC[C@]5(C)[C@H]4C[C@@H](O)[C@]3(C)[C@H]21` (some centres undefined): the IC50 result (in the assay on Staphylococcus aureus; in assay [1]) was “Not Active” each time. For the same molecule, the pIC50 with Vero was 4.44; in the assay on SK-MEL, under 4.43; in the assay with BT-549, 4.80; in the assay on SK-OV-3, 4.74.

As for `CC(=O)O[C@@H]1C[C@@H]2[C@@]3(C)CCCC(C)(C)[C@@H]3CC[C@@]2(C)[C@@H]2CC=C(C=O)[C@H](C=O)[C@@]12C`, the pIC50 was 5.20 in the assay with Staphylococcus aureus; 4.65 in the assay with Vero; under 4.37 with SK-MEL; 4.68 in the assay on BT-549; 4.63 in the assay with SK-OV-3. Besides, in assay [1], the IC50 entry is recorded as “Not Active”.

As for `CC(=O)O[C@@H]1OC=C2[C@@H](OC(C)=O)C[C@H]3[C@]4(C)CC[C@H]5C(C)(C)CCC[C@]5(C)[C@H]4CC(=O)[C@]3(C)[C@H]21`, the IC50 entry in the assay with Staphylococcus aureus and with SK-MEL was “Not Active” throughout. The pIC50 is under 4.42 in the assay on Vero, under 4.42 with BT-549, under 4.42 with SK-OV-3 and 5.29 in assay [1] (read-out: IC50).

In the case of `CC1(C)CCC[C@]2(C)[C@H]3C[C@@H](O)[C@]4(C)[C@H]5COC(=O)C5=CC[C@H]4[C@]3(C)CC[C@@H]12`, the IC50 result (with Staphylococcus aureus; in the assay on Vero; with SK-MEL; in the assay with BT-549; in the assay on SK-OV-3; in assay [1]) was “Not Active” throughout.

On to `O=C(O)c1cn(C2CC2)c2cc(N3CCNCC3)c(F)cc2c1=O` [CIPROFLOXACIN], for which the results for the pIC50 (with Staphylococcus aureus; in assay [1]) were 6.85 and 6.33, respectively.

Regarding `CC1(C)CCC[C@]2(C)[C@H]3CC(=O)[C@]4(C)[C@@H](C=O)C(C=O)=CC[C@H]4[C@]3(C)CC[C@@H]12`, the pIC50 with Staphylococcus aureus was 4.56; in the assay with Vero, 4.74; in the assay on SK-MEL it was 4.84; in the assay with BT-549, 4.81; in the assay on SK-OV-3, 4.38. Moreover, in assay [1], the IC50 result is listed as “Not Active”.

For `COc1cccc2c1C(=O)c1c(O)c3c(c(O)c1C2=O)C[C@@](O)(C(=O)CO)C[C@@H]3O[C@H]1C[C@H](N)[C@H](O)[C@H](C)O1` [DOXORUBICIN], the pIC50 with Vero was 5.20; in the assay on SK-MEL, 5.92; in the assay with BT-549 it was 5.92; in the assay on SK-OV-3, 6.10.

As to `CC(=O)O[C@H]1C[C@H]2[C@]3(C)CC[C@H]4C(C)(C)CCC[C@]4(C)[C@H]3C[C@@H](O)[C@]2(C)c2cocc21` [SCALARAFURAN], the IC50 result (with Staphylococcus aureus; in the assay on Vero; in the assay with SK-MEL; in the assay with BT-549; in the assay with SK-OV-3; in assay [1]) was “Not Active” throughout.

As for `CC1(C)CCC[C@]2(C)[C@H]3C[C@@H](O)[C@]4(C)[C@H](C=O)C(C=O)=CC[C@H]4[C@]3(C)CC[C@@H]12`, the pIC50 in the assay on Staphylococcus aureus is 5.42; in the assay on Vero, 4.68; in the assay on SK-MEL it was 4.73; in the assay on BT-549, 4.89; in the assay with SK-OV-3 it was 4.71. In assay [1], the IC50 entry is given as “Not Active”.

`CC1(C)CCC[C@]2(C)[C@H]3C[C@@H](O)[C@]4(C)[C@@H](C=O)C(C=O)=CC[C@H]4[C@]3(C)CC[C@@H]12`: the pIC50 in the assay with Staphylococcus aureus is 4.66; with Vero, 4.71; in the assay on SK-MEL, 4.58; in the assay on BT-549, 4.71; with SK-OV-3, 4.51; in assay [1] (read-out: IC50), 4.41.

`CC1(C)CCC[C@]2(C)[C@H]3C[C@@H](O)[C@]4(C)c5cocc5[C@@H](O)C[C@H]4[C@]3(C)CC[C@@H]12` [SESTERSTATIN 5]: the IC50 entry (with Staphylococcus aureus; in the assay with Vero; in the assay on SK-MEL; in the assay with BT-549; with SK-OV-3; in assay [1]) was “Not Active” each time.

As to `CC1(C)CCC[C@]2(C)[C@H]3C[C@@H](O)[C@]4(C)C(CO)C(CO)=CC[C@H]4[C@]3(C)CC[C@@H]12` (some centres undefined), the IC50 result (with Staphylococcus aureus; in the assay on Vero; in the assay with SK-MEL; with BT-549; with SK-OV-3; in assay [1]) was “Not Active” throughout.

In the case of `CC(=O)O[C@@H]1C[C@@H]2[C@@]3(C)CCCC(C)(C)[C@@H]3CC[C@@]2(C)[C@@H]2CC=C3C(=O)O[C@@H](O)[C@@H]3[C@@]12C`, the IC50 entry (in the assay on Staphylococcus aureus; in the assay with Vero; in the assay on SK-MEL; in the assay with BT-549; with SK-OV-3; in assay [1]) was “Not Active” each time.

With `CO[C@@H]1C[C@H]2[C@]3(C)CC[C@H]4C(C)(C)CCC[C@]4(C)[C@H]3C[C@@H](O)[C@]2(C)c2cocc21` [16-O-METHYLSESTERSTATIN 4], the IC50 result (in the assay with Staphylococcus aureus; with Vero; in the assay on SK-MEL; in the assay on BT-549; in the assay on SK-OV-3; in assay [1]) was “Not Active” throughout.

`CC1(C)CCC[C@]2(C)[C@H]3CC(=O)[C@]4(C)[C@H](C=O)C(C=O)=CC[C@H]4[C@]3(C)CC[C@@H]12`: the pIC50 in the assay on Staphylococcus aureus is 4.52; in the assay with Vero it was 4.81; in the assay on SK-MEL it was 4.84; with BT-549, 4.81; in the assay with SK-OV-3, 4.51. Besides, the IC50 entry in assay [1] is recorded as “Not Active”.

As to `CO[C@@H]1O[C@@H](OC)[C@H]2C1=CC[C@H]1[C@]3(C)CC[C@H]4C(C)(C)CCC[C@]4(C)[C@H]3C[C@@H](O)[C@]21C`, the IC50 entry (in the assay on Staphylococcus aureus; in the assay on Vero; in the assay on SK-MEL; in the assay with BT-549; in the assay on SK-OV-3; in assay [1]) was “Not Active” in each case.

With `CC(=O)O[C@@H]1OC=C2[C@@H](OC(C)=O)C[C@H]3[C@]4(C)CC[C@H]5C(C)(C)CCC[C@]5(C)[C@H]4C[C@@H](O)[C@]3(C)[C@H]21` [HETERONEMIN], the IC50 result in the assay on Staphylococcus aureus is “Not Active”. Also, the pIC50 with Vero was 5.09; with SK-MEL, 4.82; in the assay on BT-549 it was 4.95; with SK-OV-3, 5.47; in assay [1] (read-out: IC50), 5.69.
